Test results: patent US12486298B2, “Fucosyltransferase specific inhibition using fucose mimetics” (THE FLORIDA INTERNATIONAL UNIVERSITY BOARD OF TRUSTEES, priority 2020, dated 2025)

Legend:
[1] = target: T1, fucosyltransferase IX (FTIX) (Homo sapiens, UniProt Q9Y231); experiment: FTIX exofucosylation of RPMI-8402 cells, Le^x by flow cytometry; type: cell-based
T1 sequence (Q9Y231 1-359): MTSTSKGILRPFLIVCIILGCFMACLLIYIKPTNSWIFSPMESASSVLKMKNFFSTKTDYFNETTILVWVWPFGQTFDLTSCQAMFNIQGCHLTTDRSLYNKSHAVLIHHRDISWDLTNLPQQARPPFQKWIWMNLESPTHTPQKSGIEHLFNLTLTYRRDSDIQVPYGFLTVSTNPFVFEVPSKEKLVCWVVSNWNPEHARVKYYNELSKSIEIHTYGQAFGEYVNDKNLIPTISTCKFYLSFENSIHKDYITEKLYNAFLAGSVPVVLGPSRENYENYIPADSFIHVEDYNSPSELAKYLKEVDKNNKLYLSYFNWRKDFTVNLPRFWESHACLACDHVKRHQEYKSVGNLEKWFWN
Experimental: A Canto II (BD Biosciences) flow cytometer was utilized for flow cytometry and the data acquired was analyzed using FlowJo Software (Treestar). Cells were stained using antibodies specific to sLe^X (Alexa-Fluor 488 Mouse Anti-Human CD15s (BD Biosciences)), or Le^X (APC anti-human CD15 (SSEA-1) Antibody (BioLegend)).
Cells of the RPMI-8402 cell line and MSC cell line were treated with either 0.3 ug of fucosyltransferase VI (FTVI), 2.7 ug of fucosyltransferase VII (FTVII), 1.0 ug fucosyltransferase IX (FTIX) or buffer-only at 37° C. for 60 minutes. All reactions contained at 1×10^6 cells/30 ul in HBSS with 10 mM Hepes, 0.1% Human Serum Albumin, and 1.0 mM GDP fucose (GDP-Fuc) (Carbosynth) and the appropriate fucosytransferase. Then, mimetic 1 was added to each of the treatment groups in molar equivalents with respect to GDP-Fuc with each of the fucosytransferases. […]
Mimetic 1 (FIG. 1) was tested as an inhibitor of FT-mediated exofucosylation on these cells and the extent of fucosylation was monitored using antibodies that detect the creation of the relevant fucosylated epitopes, i.e., sLe^x or Le^x. […]

[2] = system: E-selectin bearing HUVEC; experiment: Parallel plate flow chamber: exofucosylated RPMI-8402 cells on TNFα-stimulated HUVEC under shear; type: cell-based, human; details: for number of interacting RPMI-8402 cells on HUVEC: shear 0.5-8 dynes/cm^2
Experimental: Human umbilical vein endothelial cells (HUVEC, Lonza) were cultured in Endothelial Cell Growth Media (R&D Systems) in Bioflux microfluidic chambers that had been previously coated with 250 ug/ml fibronectin (BD Biosciences). Then 4 hours prior to rolling assay, cells were activated with 40 ng/ml TNFα (R&D Systems). Different cell subsets, based on exofucoslylation/mimetic conditions, were then infused into the chamber at a concentration of 2×10^6/ml and shear stress was applied from 0.5-8 dynes/cm^2. Then RPMI-8402 subsets were loaded into chambers containing monolayers of E-selectin bearing HUVECs with an initial shear rate of 0.5 dyne/cm^2, with stepwise increments in the shear rate up to 8 dynes/cm^2. The number of tethering/interacting RPMI-8402 cells on HUVEC were quantified at each shear rate and averaged across three different fields of view.
As sLe^x is the primary ligand for E-selectin which is induced on endothelial cells by inflammatory cytokine, e.g., TNFα the biological impacts of mimetic 1's inhibition of sLe^x binding to E-selectin under hemodynamic shear was evaluated. To this end, RPMI-8402 cells were left untreated or exofucosylated with 1.0 mM GDP-Fuc, 1.0 mM GDP-Fuc and 2.0 mM mimetic 1 or preincubated with FTVI and 2.0 mM mimetic 1 for 45 min followed by addition of 1.0 mM GDP-Fuc for 1 h and the presence of sLe^x determined by flow cytometry (FIGS. 6A and 6B). The RPMI-8402 cells treated as outlined above were then loaded in a parallel plate flow chamber seeded with monolayers of human umbilical vein endothelial cells (HUVEC) that had been stimulated with TNFα (FIG. 6C). The RPMI cells were introduced under defined fluid shear conditions to determine inhibition.

Structure (SMILES): CC1OC2Oc3ccc(CC(=O)O)cc3SC2C(O)C1O (centres unmarked) [mimetic 1]
- inhibition of FTIX-mediated exofucosylation (Le^x creation) ([1]; RPMI-8402 cells, 1.0 mM GDP-Fuc with 1.0 mM or 2.0 mM mimetic 1): did not inhibit FTIX-mediated exofucosylation
- effect of pre-incubation on FTIX-mediated exofucosylation ([1]; pre-incubation with 2.0 mM mimetic 1 prior to addition of GDP-Fuc): no effect
- number of interacting RPMI-8402 cells on HUVEC ([2]; exofucosylated with FTVI, 1.0 mM GDP-Fuc and 2.0 mM mimetic 1): reduced the number of interacting cells
- ability of cells to adhere to HUVEC ([2]; physiologically relevant shear conditions): reduced the ability of cells to adhere to HUVEC
- number of interacting RPMI-8402 cells on HUVEC ([2]; preincubation with FTVI and 2.0 mM mimetic 1 for 45 min, then 1.0 mM GDP-Fuc for 1 h): reduced the number of interacting cells
